Measured values from patent US20060205642A1, “Oral methods of treatment using proANF peptides” (priority 2005, published 2006).

Experiments:
[1] = Ischemic nonoliguric acute renal failure (ARF) in rats; type: in vivo, Sprague-Dawley rats
Method: Ischemic nonologuric acute renal failure (ARF) was induced in 24 male Sprague-Dawley rats (Zivc-Miller), weighing 200-270 g with 50 min of ischemia. Seven of the ARF rats received proANF 31-67. There were 17 ARF rats in the control group. Each of these rats were handled identically with the control rats as well as the experimental group of rats receiving an osmotic pump placement two days after receiving a unilateral right nephrectomy followed by clamping left renal artery for 50 min. The only difference was that the control group received 0.9% saline only in their osmotic pumps, whereas the experimental group had proANF 31-67 dissolved in 0.9% saline within their osmotic pumps which pump for 72 hours into the peritoneal cavity. In the 17 control ARF rats their preischemic blood urea nitrogen (BUN) and creatinine levels of 16±1 and 0.56±0.05 mg/dl increased to 162±4 and 8.17±0.5 mg/dl, P<0.001, respect 4 of postischemia. ProANF 31-67 (0.3 μg·kg^−1·min^−1 intraperitoneally), decreased the BUN and creatinine levels to 53±17 mg/dl and 0.98±0.12 mg/dl (P<0.001) in seven animals where ARF had been established for two days. […] Acute tubular necrosis was <5% in the proANF 31-67-treated rats compared with 25% to >75% in the placebo-treated ARF animals.

[2] = Rat clearance model (diuresis and salt excretion); type: in vivo, Munich-Wistar rats; settings: for FENa, fractional excretion of sodium / UNa, urinary sodium / UNaV, urinary sodium excretion rate / V, urine flow rate: means ± SE
Method: The same three peptides and ANF from Example I are tested using the rat clearance model. Six control rats and six experimental Munich-Wistar rats, each weighing 150-200 grams, are used for each peptide, with catheters being placed in both jugular veins and in the femoral artery. The ureters are cannulated for simultaneous urine collections with femoral artery blood collections.
After inserting the catheters, a stabilization of one hour is allowed. A 10 μg/kg bolus of each of the respective human sequences of the peptides is given via the jugular vein to six experimental rats followed by a sustaining infusion of 0.1 μg/kg/min for 60 minutes. Blood and urine samples are collected at 20 minute intervals during this 60 minute infusion. In both the control and experimental animals, hematocrits and plasma sodium values remained at the same levels pre- and post-infusion while blood pressure decreased with each of these peptides (see Attachment B).

[3] = Infusion into human subjects with Class III NYHA congestive heart failure; type: in vivo, humans
Method: Human proANF's 1-30, 31-67, 79-98, and 99-126 (i.e., ANF) were infused into human subjects with Class III New York Heart Association congestive heart failure (CHF). An identical protocol to that used in example V where these peptides were infused into healthy human subjects was utilized. (See Attachment C and F for a detailed description of this protocol). The human subjects with congestive heart failure received an identical dose (0.1 μg/kg body wt/minute for 60 minutes) that the healthy human subjects received. […] This striking urine output secondary to proANF 31-67 was significant at P<0.0001 compared to the pre-infusion output of the congestive heart failure subjects (n=6).

[4] = test system: renal medullary Na+-K+-ATPase; test: Inhibition of renal medullary Na+-K+-ATPase activity (FIG. 9); type: biochemical; settings: 10^-11 M, n=6, ANOVA
From the text: FIG. 9. Inhibition of renal medullary Na+-K+-ATPase activity by proANF 79-98 (kaliuretic peptide), proANF 1-30 (long acting natriuretic peptide), proANF 31-67 (vessel dilator), and angiotensin II at their […] concentrations.

[5] = test system: particulate guanylate cyclase; test: Cyclic GMP / particulate guanylate cyclase activation in cultured smooth muscle cells and porcine aorta; type: cell-based
porcine aortas = test: Vasodilation of porcine aortic strips preconstricted with 0.3 micromolar phenylephrine
Method: 30 Kg pigs are sacrificed, and aortic strips are harvested. The strips are attached to F-60 transducer (Narco-BioSystems, Houston, Tex.) and attached to a physiography (Narco-BioSystems) while being submerged in a muscle tissue bath comprising a Krebs Ringer solution at 37° C., with 95% O2-5% CO2, bubbled through the bath. Percentage vasodilation is measured versus time after preconstriction with 0.3 micromolar phenylephrine. […] (Vesely et al., Biochem. Biophys. Res. Commun. 148:1540-1548, 1987).

[6] = test system: prostaglandin E2 (PGE2) synthesis; test: Prostaglandin E2 synthesis (FIG. 8); type: biochemical; settings: n=6, ANOVA and Duncan's MRT
[7] = A, control period (before peptide)
[8] = B, first 60-minute experiment period, 10 μg/kg bolus then 0.1 μg/kg/min
[9] = C, second 60-minute experimental period

H-EVVPPQVLSEPNEEAGAALSPLPEVPPWTGEVSPAQR-OH [proANF 31-67]
creatinine level ([1]; 0.3 μg·kg^−1·min^−1 intraperitoneally, seven animals, ARF established two days, control ARF rats 8.17±0.5 at day 4): 0.98 ± 0.12 mg/dL
blood urea nitrogen (BUN) level ([1]; 0.3 μg·kg^−1·min^−1 intraperitoneally, seven animals, ARF established two days, control ARF rats 162±4 at day 4): 53 ± 17 mg/dL
acute tubular necrosis ([1]; 25% to >75% in placebo-treated animals): < 5%
mortality at day 6 of ARF ([1]; 88% without proANF 31-67): 14%
left ventricular dilation (transthoracic echocardiography) ([1]; ARF rats): reversed this dilation
water excretion ([1]; doubled with ARF): further augmented
survival (Kaplan-Meir plot) ([1]; from day 4 (P<0.01) and day 5 onward (P<0.001) vs placebo-treated ARF rats): significant advantage with respect to survival
FENa, fractional excretion of sodium [2, 7]: 0.057 ± 0.012%
UNa, urinary sodium [2, 7]: 21.02 ± 4.41 meq/1
UNaV, urinary sodium excretion rate [2, 7]: 144.08 ± 56.75 μeq · min^−1 · g kidney wt^−1
V, urine flow rate [2, 7]: 2.63 ± 0.24 μl · min^−1 · g kidney wt^−1
V, urine flow rate ([2]; B, first 60-minute experiment period, 10 μg/kg bolus then 0.1 μg/kg/min via jugular vein): 9.36 ± 3.14 μl · min^−1 · g kidney wt^−1
FENa, fractional excretion of sodium [2, 8]: 0.457 ± 0.156%
UNa, urinary sodium [2, 8]: 111.73 ± 21.37 meq/1
UNaV, urinary sodium excretion rate [2, 8]: 1,057 ± 371.69 μeq · min^−1 · g kidney wt^−1
V, urine flow rate ([2]; C, second 60-minute experimental period, 10 μg/kg bolus then 0.1 μg/kg/min): 8.84 ± 1.86 μl · min^−1 · g kidney wt^−1
FENa, fractional excretion of sodium [2, 9]: 0.444 ± 0.155%
UNa, urinary sodium [2, 9]: 129.33 ± 24.73 meq/1
UNaV, urinary sodium excretion rate [2, 9]: 1,077.63 ± 306.10 μeq · min^−1 · g kidney wt^−1
potassium excretion ([2]; rat clearance model): does not cause increased potassium excretion
FENa 20 minutes after infusion began ([3]; CHF): doubled
FENa at the end of the infusion vs baseline ([3]; CHF): 4.5 fold
decrease of central venous pressure ([3]; CHF): 27%
decrease of pulmonary capillary wedge pressure ([3]; CHF): 33%
heart rate ([3]; CHF): did not change significantly
increase of cardiac index ([3]; CHF): 35%
increase of cardiac output ([3]; CHF): 34%
increase of stroke volume index ([3]; CHF): 24%
mean pulmonary artery pressure ([3]; CHF): did not change significantly
sodium excretion within 20 minutes ([3]; CHF): doubling
enhancement of sodium excretion ([3]; CHF subjects, 100 ng/kg body weight/min for 60 minutes): three-to-eight fold
urine output in 20 minutes ([3]; CHF, 0.1 μg/kg body wt/minute for 60 minutes): doubled
urine output at the end of the 60 minute infusion ([3]; CHF, 0.1 μg/kg body wt/minute, n=6): 4.8 fold
fractional excretion of sodium (in words) ([3]; CHF, 100 ng/kg body weight per minute for 60 minutes): significantly (P<0.05) increased
maximum increase of fractional excretion of sodium (FENa) ([3]; CHF, P<0.001): 6 fold
sodium excretion 3 hours after infusion was stopped vs baseline ([3]; CHF, P<0.01): 3 fold
decrease of pulmonary vascular resistance ([3]; CHF, during the infusion): 25%
decrease of systemic vascular resistance ([3]; CHF, during the infusion): 24%
urine output 3 hours after stopping the infusion vs pre-infusion values ([3]; CHF, n=6): 4.3 fold
urine output 3 hours after stopping the infusion ([3]; CHF, n=6, baseline 1.56±0.35 mL/min): 6.7 ± 0.65 mL/min
cardiac index after proANF 31-67 ([3]; CHF, from 2.66±0.01): 3.58±0.01 L·min^−1·m^−2
cardiac output after proANF 31-67 ([3]; CHF, from 5.35±0.9 L/min): 7.9 ± 1.2 L/min
effects in persons with CHF compared to healthy individuals ([3]; diuretic and natriuretic effects): not blunted (i.e., decreased) compared to healthy individuals
adverse effects ([3]; human, in vivo): no adverse effects
hypotension ([3]; human, in vivo): None became hypotensive
increase in urinary volume and flow ([3]; one CHF patient, for six hours after infusion was stopped): 2 fold
inhibition of renal medullary Na+-K+-ATPase activity [4]: significant at P<0.01
cyclic GMP levels in cultured smooth muscle cells ([5]; cultured smooth muscle cells): increase cyclic GMP levels
concentration of maximal activation of guanylate cyclase activity ([5]; porcine aorta and isolated smooth muscle cells): about 1 μM
EC50 ([5]; porcine aorta and isolated smooth muscle cells, read-out: half maximal activation (ED5o) of guanylate cyclase): ~0.01 µM
increase in cyclic GMP levels over baseline levels associated with vasodilation (porcine aortas): four-to-five fold
prostaglandin E2 (PGE2) synthesis [6]: increase prostaglandin E2 (PGE2) synthesis
